According to US10040759B2, “Substituted azetidinyl compounds as GlyT1 inhibitors” (DART NEUROSCIENCE (CAYMAN) LTD., priority 2014, dated 2018):

The molecules below were run against T1, GlyT1 (Homo sapiens, UniProt P48067) (assay: Glycine Transporter 1 (GlyT1) uptake assay, scintillation proximity assay of [14C]-glycine uptake). Details: [14C]-glycine uptake; read-out: GlyT1 (pIC50) (converted).
T1 construct: expressed in transfected cells
T1 sequence (P48067 1-706): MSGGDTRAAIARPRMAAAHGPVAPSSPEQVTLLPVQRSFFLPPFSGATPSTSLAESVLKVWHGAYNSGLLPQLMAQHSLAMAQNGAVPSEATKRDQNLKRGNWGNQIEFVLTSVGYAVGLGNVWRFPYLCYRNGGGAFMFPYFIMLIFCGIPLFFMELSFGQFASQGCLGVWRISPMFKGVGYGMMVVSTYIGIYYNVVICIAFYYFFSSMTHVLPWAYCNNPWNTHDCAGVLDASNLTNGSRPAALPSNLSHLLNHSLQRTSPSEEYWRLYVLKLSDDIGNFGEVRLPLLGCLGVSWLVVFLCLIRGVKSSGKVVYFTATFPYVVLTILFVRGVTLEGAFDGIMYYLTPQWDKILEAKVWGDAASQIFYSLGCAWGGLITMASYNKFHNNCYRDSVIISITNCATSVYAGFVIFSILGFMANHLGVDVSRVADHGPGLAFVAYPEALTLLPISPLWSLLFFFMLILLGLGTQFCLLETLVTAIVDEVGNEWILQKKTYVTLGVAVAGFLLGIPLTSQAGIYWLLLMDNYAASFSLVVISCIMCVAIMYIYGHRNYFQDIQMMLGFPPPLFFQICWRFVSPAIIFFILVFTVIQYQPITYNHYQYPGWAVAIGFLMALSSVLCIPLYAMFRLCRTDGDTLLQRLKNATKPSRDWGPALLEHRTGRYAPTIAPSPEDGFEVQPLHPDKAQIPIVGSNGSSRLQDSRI
Assay type: cell-based
Procedure: Glycine Transporter 1 (GlyT1) Uptake Assay
HEK293 cells stably expressing hGlyT1c were plated onto 96-well Cytostar plates at a density of 4.5×10^4 cells per well in 100 μL of growth media (DMEM containing 10% fetal bovine serum) and incubated overnight in a 37° C., 10% CO2 incubator. The following day, stock compounds in 10 mM DMSO were serially diluted in DMSO, and 2× compound solutions were prepared by diluting compound again (1:100) in HBSS. […] Plates were then read on a MicroBeta plate counter (Perkin Elmer). Dose-response data for tested compounds were analyzed and curves were fit using a four parameter logistic fit to determine IC50 values. […]

SMILES | IC50 [µM]
C[C@H](Oc1ccc(C#N)c(Cl)c1C(=O)N1CC(c2ccc(F)cc2)C1)C(F)(F)F [Example 56, 2-Chloro-3-[3-(4-fluorophenyl)azetidine-1-carbonyl]-4-{[(2S)-1,1,1-trifluoropropan-2-yl]oxy}benzonitrile] | 0.1 to 1
C[C@H](Oc1ccc(C#N)c(Cl)c1C(=O)N1CC(c2cc(F)cc(F)c2)C1)C(F)(F)F [Example 57, 2-Chloro-3-[3-(3,5-difluorophenyl)azetidine-1-carbonyl]-4-{[(2S)-1,1,1-trifluoropropan-2-yl]oxy}benzonitrile] | 0.1 to 1
COc1c(S(C)(=O)=O)ccc(O[C@@H](C)C(F)(F)F)c1C(=O)N1CC(Oc2ccc(F)cc2C)C1 [Example 58, 3-(4-Fluoro-2-methylphenoxy)-1-(3-methanesulfonyl-2-methoxy-6-{[(2S)-1,1,1-trifluoropropan-2-yl]oxy}benzoyl)azetidine] | < 0.1
COc1c(S(C)(=O)=O)ccc(O[C@@H](C)C(F)(F)F)c1C(=O)N1CC(Oc2c(F)cc(F)cc2F)C1 [Example 59, 1-(3-Methanesulfonyl-2-methoxy-6-{[(2S)-1,1,1-trifluoropropan-2-yl]oxy}benzoyl)-3-(2,4,6-trifluorophenoxy)azetidine] | < 0.1
COc1c(S(C)(=O)=O)ccc(O[C@@H](C)C(F)(F)F)c1C(=O)N1CC(Oc2cc(F)c(F)cc2F)C1 [Example 60, 1-(3-Methanesulfonyl-2-methoxy-6-{[(2S)-1,1,1-trifluoropropan-2-yl]oxy}benzoyl)-3-(2,4,5-trifluorophenoxy)azetidine] | 0.1 to 1
COc1c(S(C)(=O)=O)ccc(O[C@@H](C)C(F)(F)F)c1C(=O)N1CC(Oc2ccc(C(F)(F)F)cn2)C1 [Example 61, 2-{[1-(3-Methanesulfonyl-2-methoxy-6-{[(2S)-1,1,1-trifluoropropan-2-yl]oxy}benzoyl)azetidin-3-yl]oxy}-5-(trifluoromethyl)pyridine] | 0.1 to 1
COc1c(S(C)(=O)=O)ccc(O[C@@H](C)C(F)(F)F)c1C(=O)N1CC(Oc2ccncc2)C1 [Example 62, 4-{[1-(3-Methanesulfonyl-2-methoxy-6-{[(2S)-1,1,1-trifluoropropan-2-yl]oxy}benzoyl)azetidin-3-yl]oxy}pyridine] | 0.1 to 1
CC(Oc1ccc(C#N)c(Cl)c1C(=O)N1CC(c2ccc(C(F)(F)F)cc2)C1)C(F)(F)F (centres unmarked) [Example 63, 2-Chloro-3-({3-[4-(trifluoromethyl)phenyl]azetidin-1-yl}carbonyl)-4-[(1,1,1-trifluoropropan-2-yl)oxy]benzonitrile] | 0.1 to 1
COc1c(C#N)ccc(OC(C)C(F)(F)F)c1C(=O)N1CC(O)(c2ccc(C(F)(F)F)cc2)C1 (centres unmarked) [Example 64, 3-({3-Hydroxy-3-[4-(trifluoromethyl)phenyl]azetidin-1-yl}carbonyl)-2-methoxy-4-[(1,1,1-trifluoropropan-2-yl)oxy]benzonitrile] | 0.1 to 1
COc1c(C#N)ccc(OC(C)C(F)(F)F)c1C(=O)N1CC(c2ccc(F)cn2)C1 (centres unmarked) [Example 65, 3-{[3-(5-Fluoropyridin-2-yl)azetidin-1-yl]carbonyl}-2-methoxy-4-[(1,1,1-trifluoropropan-2-yl)oxy]benzonitrile] | < 0.1
CC(Oc1ccc(C#N)c(Cl)c1C(=O)N1CC(c2ccc(F)cn2)C1)C(F)(F)F (centres unmarked) [Example 66, 2-Chloro-3-{[3-(5-fluoropyridin-2-yl)azetidin-1-yl]carbonyl}-4-[(1,1,1-trifluoropropan-2-yl)oxy]benzonitrile] | 0.1 to 1
COc1c(C#N)ccc(OC(C)C(F)(F)F)c1C(=O)N1CC(Oc2ccc(F)c(F)c2)C1 (centres unmarked) [Example 67, 3-{[3-(3,4-Difluorophenoxy)azetidin-1-yl]carbonyl}-2-methoxy-4-[(1,1,1-trifluoropropan-2-yl)oxy]benzonitrile] | 1 to 10
CC(Oc1ccc(C#N)c(Cl)c1C(=O)N1CC(Oc2ccc(F)c(F)c2)C1)C(F)(F)F (centres unmarked) [Example 68, 2-Chloro-3-{[3-(3,4-difluorophenoxy)azetidin-1-yl]carbonyl}-4-[(1,1,1-trifluoropropan-2-yl)oxy]benzonitrile] | 0.1 to 1
COc1c(C#N)ccc(O[C@@H](C)C(F)(F)F)c1C(=O)N1CC(F)(c2ccc(C(F)(F)F)cc2)C1 [Example 69, 3-({3-Fluoro-3-[4-(trifluoromethyl)phenyl]azetidin-1-yl}carbonyl)-2-methoxy-4-{[(2S)-1,1,1-trifluoropropan-2-yl]oxy}benzonitrile] | 0.1 to 1
COc1c(C#N)ccc(O[C@@H](C)C(F)(F)F)c1C(=O)N1CC(F)(c2ccc(F)c(F)c2)C1 [Example 70, 3-{[3-(3,4-Difluorophenyl)-3-fluoroazetidin-1-yl]carbonyl}-2-methoxy-4-{[(2S)-1,1,1-trifluoropropan-2-yl]oxy}benzonitrile] | 0.1 to 1
CC(Oc1ccc(C#N)c(Cl)c1C(=O)N1CC(c2cccnc2)C1)C(F)(F)F (centres unmarked) [Example 71, 2-Chloro-3-{[3-(pyridin-3-yl)azetidin-1-yl]carbonyl}-4-[(1,1,1-trifluoropropan-2-yl)oxy]benzonitrile] | 0.1 to 1
CC(Oc1ccc(C#N)c(Cl)c1C(=O)N1CC(c2ccncc2)C1)C(F)(F)F (centres unmarked) [Example 72, 2-Chloro-3-{[3-(pyridin-4-yl)azetidin-1-yl]carbonyl}-4-[(1,1,1-trifluoropropan-2-yl)oxy]benzonitrile] | 0.1 to 1

The remaining lines, values ahead:

IC50 [µM] | SMILES
< 0.1 | CC(Oc1ccc(C#N)c(Cl)c1C(=O)N1CC(Oc2ccc(F)cc2)C1)C(F)(F)F (centres unmarked) [Example 73, 2-Chloro-3-{[3-(4-fluorophenoxy)azetidin-1-yl]carbonyl}-4-[(1,1,1-trifluoropropan-2-yl)oxy]benzonitrile]
0.1 to 1 | COc1c(C#N)ccc(OC(C)C(F)(F)F)c1C(=O)N1CC(Oc2ccc(F)cc2)C1 (centres unmarked) [Example 74, 3-{[3-(4-Fluorophenoxy)azetidin-1-yl]carbonyl}-2-methoxy-4-[(1,1,1-trifluoropropan-2-yl)oxy]benzonitrile]
1 to 10 | COc1c(C#N)ccc(OC(C)C(F)(F)F)c1C(=O)N1CC(c2ccncc2)C1 (centres unmarked) [Example 75, 2-Methoxy-3-{[3-(pyridin-4-yl)azetidin-1-yl]carbonyl}-4-[(1,1,1-trifluoropropan-2-yl)oxy]benzonitrile]
1 to 10 | CC(Oc1ccc(C#N)c(Cl)c1C(=O)N1CC(Oc2ccccc2)C1)C(F)(F)F (centres unmarked) [Example 76, 2-Chloro-3-[(3-phenoxyazetidin-1-yl)carbonyl]-4-[(1,1,1-trifluoropropan-2-yl)oxy]benzonitrile]
1 to 10 | Cc1ccc(OC2CN(C(=O)c3c(OC(C)C(F)(F)F)ccc(C#N)c3Cl)C2)cc1 (centres unmarked) [Example 77, 2-Chloro-3-{[3-(4-methylphenoxy)azetidin-1-yl]carbonyl}-4-[(1,1,1-trifluoropropan-2-yl)oxy]benzonitrile]
1 to 10 | COc1c(C#N)ccc(OC(C)C(F)(F)F)c1C(=O)N1CC(Oc2ccc(C)cc2)C1 (centres unmarked) [Example 78, 2-Methoxy-3-{[3-(4-methylphenoxy)azetidin-1-yl]carbonyl}-4-[(1,1,1-trifluoropropan-2-yl)oxy]benzonitrile]
1 to 10 | CC(Oc1ccc(C#N)c(Cl)c1C(=O)N1CC(c2ccc(C#N)cc2)C1)C(F)(F)F (centres unmarked) [Example 79, 2-Chloro-3-{[3-(4-cyanophenyl)azetidin-1-yl]carbonyl}-4-[(1,1,1-trifluoropropan-2-yl)oxy]benzonitrile]
1 to 10 | COc1ccc(C2CN(C(=O)c3c(OC(C)C(F)(F)F)ccc(C#N)c3Cl)C2)cc1 (centres unmarked) [Example 80, 2-Chloro-3-{[3-(4-methoxyphenyl)azetidin-1-yl]carbonyl}-4-[(1,1,1-trifluoropropan-2-yl)oxy]benzonitrile]
1 to 10 | CC(Oc1ccc(C#N)c(Cl)c1C(=O)N1CC(c2ccc(F)c(F)c2)C1)C(F)(F)F (centres unmarked) [Example 81, 2-Chloro-3-{[3-(3,4-difluorophenyl)azetidin-1-yl]carbonyl}-4-[(1,1,1-trifluoropropan-2-yl)oxy]benzonitrile]
1 to 10 | CC(Oc1ccc(C#N)c(Cl)c1C(=O)N1CC(c2cc(F)cc(F)c2)C1)C(F)(F)F (centres unmarked) [Example 82, 2-Chloro-3-{[3-(3,5-difluorophenyl)azetidin-1-yl]carbonyl}-4-[(1,1,1-trifluoropropan-2-yl)oxy]benzonitrile]
0.1 to 1 | CC(Oc1ccc(C#N)c(Cl)c1C(=O)N1CC(c2ccc(Cl)cc2)C1)C(F)(F)F (centres unmarked) [Example 83, 2-Chloro-3-{[3-(4-chlorophenyl)azetidin-1-yl]carbonyl}-4-[(1,1,1-trifluoropropan-2-yl)oxy]benzonitrile]
0.1 to 1 | CC(Oc1ccc(C#N)c(Cl)c1C(=O)N1CC(c2ccccc2C(F)(F)F)C1)C(F)(F)F (centres unmarked) [Example 84, 2-Chloro-3-({3-[2-(trifluoromethyl)phenyl]azetidin-1-yl}carbonyl)-4-[(1,1,1-trifluoropropan-2-yl)oxy]benzonitrile]
